Measurements from paper PMC3529809 (Steroids, 2012).
Where “and” joins values, the source holds several entries; their conditions need not be identical. Equal values may be shown once. Entries after “also recorded” stand apart in the source; their conditions may differ.

What was measured:
human ERβ [1] = target: T1, human ERβ (Homo sapiens, UniProt Q92731); experiment: ERELUC transient transfection reporter assay, ERβ in HepG2 cells; assay type: cell-based; details: for effect on ERβ-mediated induction of ERELUC by E2, DHEA, 7-oxo-DHEA, ADIOL and ADIONE: 1 µM ICI, 100 nM 4-OHT, 1 µM R,R-THC, 5 µM sterol, Fig. 3B; for ERELUC activity in ERβ-expressing HepG2 cells: 5 µM, 24 h, Fig. 1B, result in words
ERα [2] = details: 0.1 µM, HEK-293; cited from earlier work
ERβ [3] = details: 0.1 µM, HEK-293; cited from earlier work
MCF-7 cells = details: cited from earlier work; for proliferation of MCF-7 cells: 1–10 µM concentrations; for MCF-7 cell proliferation: less than E2
NRF1 (NRF-1) expression = experiment: QRT-PCR of NRF1 in ERβ-transfected HepG2 cells; assay type: cell-based, human; details: 10 nM E2 or 5 µM sterol, 24 h, Fig. 5B
hERα [4] = target: T2, hERα (Homo sapiens, UniProt P03372); experiment: [3H] E2 ligand binding competition; details: for ERα binding / competition with E2: result in words
hERα [5] = target: T2, hERα; experiment: ERELUC transient transfection reporter assay, ERα in HEK-293 cells; assay type: cell-based; details: for ERα agonist activity in ERELUC assay: result in words
[6] = test system: MCF-7 human breast cancer cells; experiment: Cell proliferation BrdU assay; assay type: cell-based; details: for MCF-7 cell proliferation: 48 h BrdU, 10 nM E2, 5 µM sterols, Fig. 7
[7] = test system: TFF1 (pS2), PGR (PR), CTSD (cathepsin D) transcription; experiment: QRT-PCR of endogenous ER-target genes in ERα-transfected HEK-293 cells; assay type: cell-based, human; details: 10 nM E2 or 5 µM sterol, 24 h, Fig. 5A
human ERβ [8] = target: T1, human ERβ; experiment: [3H] E2 ligand binding competition; details: IC50 for ERβ, competition with 30 nM [3H] E2, Fig. 6B
ERβ [9] = details: 50 µM, COS cells; cited from earlier work
ERα [10] = details: 50 µM, COS cells; cited from earlier work
hERα [11] = target: T2, hERα; assay type: cell-based; details: Supplemental Fig. 1
[12] = MEK1/2 inhibitor, data not shown

T2 sequence (P03372 whole entry): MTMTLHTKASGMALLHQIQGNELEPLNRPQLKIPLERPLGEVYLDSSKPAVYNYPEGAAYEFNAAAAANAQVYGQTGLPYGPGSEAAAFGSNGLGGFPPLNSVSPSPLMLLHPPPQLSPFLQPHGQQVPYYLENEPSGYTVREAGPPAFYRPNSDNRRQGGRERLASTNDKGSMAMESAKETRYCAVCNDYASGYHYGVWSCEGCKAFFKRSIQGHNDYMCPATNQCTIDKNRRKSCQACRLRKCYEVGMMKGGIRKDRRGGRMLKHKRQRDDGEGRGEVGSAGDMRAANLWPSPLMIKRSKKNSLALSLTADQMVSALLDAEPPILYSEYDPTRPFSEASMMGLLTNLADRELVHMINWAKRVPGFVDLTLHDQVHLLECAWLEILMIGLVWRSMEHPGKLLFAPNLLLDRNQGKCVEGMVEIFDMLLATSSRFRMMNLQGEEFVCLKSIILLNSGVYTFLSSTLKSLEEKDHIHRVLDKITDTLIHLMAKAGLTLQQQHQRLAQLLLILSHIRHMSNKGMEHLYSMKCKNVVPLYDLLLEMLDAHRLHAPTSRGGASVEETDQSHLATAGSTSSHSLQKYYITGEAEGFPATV
T1 sequence (Q92731 whole entry): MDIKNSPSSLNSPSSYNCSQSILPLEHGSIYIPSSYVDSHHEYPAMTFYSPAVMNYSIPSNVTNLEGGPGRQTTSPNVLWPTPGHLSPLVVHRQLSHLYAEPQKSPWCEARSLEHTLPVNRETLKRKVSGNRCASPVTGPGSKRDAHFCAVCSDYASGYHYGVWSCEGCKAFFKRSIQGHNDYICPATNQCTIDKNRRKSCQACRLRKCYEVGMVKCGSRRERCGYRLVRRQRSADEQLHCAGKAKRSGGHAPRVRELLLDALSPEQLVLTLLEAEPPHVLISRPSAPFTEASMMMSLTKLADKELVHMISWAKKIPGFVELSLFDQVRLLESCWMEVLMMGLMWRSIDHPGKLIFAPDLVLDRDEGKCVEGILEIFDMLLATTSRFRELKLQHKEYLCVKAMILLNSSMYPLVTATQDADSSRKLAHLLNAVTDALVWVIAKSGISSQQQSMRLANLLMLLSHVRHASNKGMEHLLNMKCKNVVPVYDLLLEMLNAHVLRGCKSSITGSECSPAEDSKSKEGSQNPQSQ

CC[C@@H]1Cc2cc(O)ccc2C2=C1c1ccc(O)cc1C[C@H]2CC (relative stereo) [R,R-THC, R,R-cis-diethyl tetrahydrochrysene, reference compound]
effect on ERβ-mediated induction of ERELUC by E2, DHEA, 7-oxo-DHEA, ADIOL and ADIONE (human ERβ [1]): significantly inhibited

C[C@]12CC[C@H](O)C[C@@H]1CC[C@@H]1[C@@H]2CC[C@]2(C)[C@@H](O)CC[C@@H]12 [3β-Adiol, 5α-androstane-3β,17β-adiol]
ERE-luciferase activity, ERα (ERα [2]): activated
ERE-luciferase activity, ERβ (ERβ [3]): activated
proliferation of MCF-7 cells (MCF-7 cells): stimulated proliferation
NRF-1 mRNA expression (NRF1 (NRF-1) expression): increased; also recorded: low induction

CC/C(=C(\c1ccc(O)cc1)c1ccc(OCCN(C)C)cc1)c1ccccc1 [4-OHT, 4-hydroxytamoxifen, reference compound]
effect on ERβ-mediated induction of ERELUC by E2, DHEA, 7-oxo-DHEA, ADIOL and ADIONE (human ERβ [1]): inhibited

C[C@]12CC[C@H](O)CC1=CC(=O)[C@@H]1[C@@H]2CC[C@]2(C)C(=O)CC[C@@H]12 [7-oxo-DHEA, 3β-hydroxyandrost-5-ene-7,17-dione]
ERα binding / competition with E2 (hERα [4]): did not exhibit significant ERα binding
ERα agonist activity in ERELUC assay (hERα [5]; HEK-293): lack of ERα-induced ERE-luciferase activity
MCF-7 cell proliferation [6]: increased
CTSD (cathepsin D) expression [7]: no activation
PGR (PR) expression [7]: no activation
TFF1 (pS2) expression [7]: increased
IC50 (human ERβ [8]): 500 µM
ERELUC activity in ERβ-expressing HepG2 cells (human ERβ [1]): significantly induced
NRF-1 mRNA expression (NRF1 (NRF-1) expression): low induction

C[C@]12CC[C@H](O)CC1=C[C@@H](O)[C@@H]1[C@@H]2CC[C@]2(C)C(=O)CC[C@@H]12 [7α-OH-DHEA, 7α-hydroxy-DHEA]
ERE-TK-luciferase reporter activity, ERβ (ERβ [9]): stimulated activity
ERα agonist activity in ERELUC assay (hERα [5]; HEK-293): lack of ERα activity
ERE-TK-luciferase reporter activity, ERα (ERα [10]): stimulated activity
CTSD (cathepsin D) expression [7]: no induction
PGR (PR) expression [7]: no induction
TFF1 (pS2) expression [7]: no induction
ERELUC activity in ERβ-expressing HepG2 cells (human ERβ [1]): increased
NRF-1 mRNA expression (NRF1 (NRF-1) expression): low induction
NRF-1 mRNA expression (NRF1 (NRF-1) expression; listed as α-OH-DHEA): statistically significant increase

C[C@]12CC[C@H](O)C[C@@H]1C[C@@H](O)[C@@H]1[C@@H]2CC[C@]2(C)C(=O)CC[C@@H]12 [7α-OH-EpiA, 7α-hydroxy-epiandrosterone]
MCF-7 proliferation (MCF-7 cells; 1–100 nM): inhibited

C[C@]12CC[C@H](O)CC1=C[C@H](O)[C@@H]1[C@@H]2CC[C@]2(C)C(=O)CC[C@@H]12 [7β-OH-DHEA, 7β-hydroxy-DHEA]
ERELUC activity in ERβ-expressing HepG2 cells (human ERβ [1]): suppressed

C[C@]12CC[C@H](O)C[C@@H]1C[C@H](O)[C@@H]1[C@@H]2CC[C@]2(C)C(=O)CC[C@@H]12 [7β-OH-EpiA, 7β-Hydroxy-epiandrosterone]
E2-induced proliferation of MCF-7 cells (MCF-7 cells; 1–100 nM, no dose-response detected): inhibited
cell proliferation, compound alone (MCF-7 cells; 1–100 nM): did not affect

C[C@]12CC[C@H](O)CC1=CC[C@@H]1[C@@H]2[C@@H](O)C[C@]2(C)C(=O)CC[C@@H]12 [11β-OH-DHEA, 11β-hydroxy-DHEA]
ERELUC activity in ERβ-expressing HepG2 cells (human ERβ [1]): suppressed

C[C@]12CC[C@H](O)CC1=CC[C@@H]1[C@@H]2CC[C@]2(C)C(=O)[C@H](O)C[C@@H]12 [16α-OH-DHEA, 16α-hydroxy-DHEA]
ERα agonist activity in ERELUC assay (hERα [5]; HEK-293): lack of ERα-induced ERE-luciferase activity
CTSD (cathepsin D) expression [7]: no activation
PGR (PR) expression [7]: no activation
TFF1 (pS2) expression [7]: increased
ERELUC activity in ERβ-expressing HepG2 cells (human ERβ [1]): increased
NRF-1 mRNA expression (NRF1 (NRF-1) expression): statistically significant increase; also recorded: low induction

C[C@]12CC[C@H]3[C@@H](CC=C4C[C@@H](O)CC[C@@]43C)[C@@H]1CC[C@@H]2O [ADIOL, androst-5-ene-3β,17β-diol]
MCF-7 cell proliferation [6]: increased
ERE-luciferase activity, ERα (ERα [2]): activated
TFF1 (pS2) expression [7]: increased
ERELUC activity in ERβ-expressing HepG2 cells (human ERβ [1]): significantly induced
ERE-luciferase activity, ERβ (ERβ [3]): activated
proliferation of MCF-7 cells (MCF-7 cells): stimulated proliferation
MCF-7 cell growth (MCF-7 cells; DHEA 0.5 µM, ADIOL 2 nM): stimulated
MCF-7 cell proliferation (MCF-7 cells): increased cell proliferation
NRF-1 mRNA expression (NRF1 (NRF-1) expression): statistically significant increase

C[C@]12CCC(=O)CC1=CC[C@@H]1[C@@H]2CC[C@]2(C)C(=O)CC[C@@H]12 [ADIONE, androst-5-ene-3,17-dione]
MCF-7 cell proliferation [6]: increased
IC50 (human ERβ [8]): 50 µM and ~50 µM
ERELUC activity in ERβ-expressing HepG2 cells (human ERβ [1]): significantly induced
ERELUC activity in ERβ-expressing HepG2 cells (human ERβ [1]; listed as androst-5-ene-3,17-dione): effective in activating
NRF-1 mRNA expression (NRF1 (NRF-1) expression): did not increase

CC(O)(CS(=O)(=O)c1ccc(F)cc1)C(=O)Nc1ccc(C#N)c(C(F)(F)F)c1 (stereo not drawn) [Bicalutamide, reference compound]
effect on DHEA-, 7-oxo-DHEA-, ADIOL- and ADIONE-induced proliferation ([6]; 10 µM bicalutamide, pretreatment 4 h, also blocked DHT-induced proliferation): inhibited

C[C@]12CC[C@H](OS(=O)(=O)O)CC1=CC[C@@H]1[C@@H]2CC[C@]2(C)C(=O)CC[C@@H]12 [DHEA-S, DHEA 3β-sulfate]
IC50 (hERα [4]; read-out: IC50 for ERα, competition with 30 nM [3H] E2, Fig. 6A): 100 to 500 µM
induction of ERELUC activity via ERα (hERα [5]; 5 µM, 24 h, HEK-293, Fig. 1B): around 9 fold
induction of ERELUC expression with ERα (hERα [5]; concentration-response, at higher concentrations, HEK-293, Fig. 2A): ~ 2 fold
MCF-7 cell proliferation [6]: increased
CTSD (cathepsin D) expression [7]: increased
PGR (PR) expression [7]: increased
TFF1 (pS2) expression [7]: increased
MCF-7 cell proliferation (MCF-7 cells): increased cell proliferation

C[C@]12CCC(=O)C[C@@H]1CC[C@@H]1[C@@H]2CC[C@]2(C)[C@@H](O)CC[C@@H]12 [DHT, dihydrotestosterone, reference compound]
MCF-7 cell proliferation [6]: concentration-dependent increase
proliferation of MCF-7 cells (MCF-7 cells): stimulated proliferation

C[C@]12CC[C@@H]3c4ccc(O)cc4CC[C@H]3[C@@H]1CC[C@@H]2O [E2, 17β-estradiol, reference compound]
CTSD (cathepsin D) expression [7]: increased
PGR (PR) expression [7]: increased
TFF1 (pS2) expression [7]: increased
NRF-1 mRNA expression (NRF1 (NRF-1) expression): statistically significant increase; also recorded: low induction

C[C@]12CC[C@@H]3c4ccc(O)cc4C[C@@H](CCCCCCCCC[S+]([O-])CCCC(F)(F)C(F)(F)F)[C@H]3[C@@H]1CC[C@@H]2O (stereo partly drawn) [ICI 182,780, reference compound]
effect on ERα-mediated induction of ERELUC by E2, DHEA, DHEA-S and ADIOL (hERα [5]; 1 µM ICI, 100 nM 4-OHT, 1 µM R,R-THC, 5 µM sterol, Fig. 3A): inhibited
effect on E2-induced stimulation of MCF-7 cell proliferation ([6]; 100 nM ICI 182,780, pretreatment 6 h): inhibited
effect on ERβ-mediated induction of ERELUC by E2, DHEA, 7-oxo-DHEA, ADIOL and ADIONE (human ERβ [1]): inhibited
effect on the proliferative activity of 10 nM DHEA in MCF-7 cells (MCF-7 cells): lack of inhibition

COc1cccc(-c2cc(=O)c3ccccc3o2)c1N [PD998059, reference compound]
effect on DHEA or metabolite-induced ERELUC activity, ERα (hERα [5]; [12]): did not block
effect on DHEA or metabolite-induced ERELUC activity, ERβ (human ERβ [1]; [12]): did not block

C[C@]12CCC(=O)C=C1CC[C@@H]1[C@@H]2CC[C@]2(C)C(=O)CC[C@@H]12 [androst-4-ene-3,17-dione]
ERELUC activity in ERβ-expressing HepG2 cells (human ERβ [1]): effective in activating

C=C1C[C@@H]2[C@H](CC[C@]3(C)C(=O)CC[C@@H]23)[C@@]2(C)C=CC(=O)C=C12 [exemestane, reference compound]
effect on E2, DHEA or ADIOL induced ERELUC activity in ERα-transfected cells (hERα [5]; 100 nM exemestane, HEK-293, Fig. 4A): did not significantly inhibit
effect on proliferation with ADIOL or ADIONE ([6]; 100 nM exemestane, 5 µM sterol, 48 h): no inhibitory activity
effect on ADIONE activation of ERβ (human ERβ [1]; 100 nM exemestane, HepG2, Fig. 4B): no effect
inhibition at 0.1 µM (human ERβ [1]; HepG2, read-out: inhibition of DHEA-, ADIOL- and 7-oxo-DHEA-induced ERELUC reporter activity): 20 to 30%

Clc1ccc(COC(Cn2ccnc2)c2ccc(Cl)cc2Cl)c(Cl)c1 (stereo not drawn) [miconazole, reference compound]
inhibition of [3H] E2 binding to recombinant human ERα (hERα [4]; 100 µM competitor, Supplemental Fig. 2): 15%
ERα binding / competition with E2 (hERα [4]): did not compete
effect on DHEA-stimulated ERα transcriptional activity (hERα [5]; 5 µM miconazole, HEK-293): did not inhibit
effect on ERα activation of ERELUC in response to E2 and ADIOL (hERα [5]; 5 µM miconazole, HEK-293, Fig. 4A): reduced
effect on E2-induced ERα-ERE-LUC activity (hERα [11]; 10 nM E2, miconazole pretreatment): inhibited
increase of basal ERE-luciferase reporter activity (hERα [11]; miconazole pretreatment): ~ 0.8 fold
effect on MCF-7 cell proliferation induced by E2, DHEA, ADIOL and ADIONE ([6]; 5 µM miconazole, 48 h): inhibited
effect on ERβ activation of ERELUC in response to E2, ADIOL, DHEA, ADIONE and 7-oxo-DHEA (human ERβ [1]; 5 µM miconazole, HepG2, Fig. 4B): reduced

C[C@]12CC[C@H]3[C@@H](CCC4=CC(=O)CC[C@@]43C)[C@@H]1CC[C@@H]2O [testosterone]
proliferation of MCF-7 cells (MCF-7 cells): stimulated proliferation
